Target: T1, DCAF1 (1058-1396) (Homo sapiens, UniProt Q9Y4B6)
T1 construct: a fragment of a DCAF1 protein that includes amino acid residues A1058 to E1396; His6 (N, cleaved yes); made in house; host or cells: Sf9 insect cells (Bac-to-Bac baculovirus, pFastBacHT vector)
Experiment: Surface plasmon resonance (SPR) binding assay, compound binding to DCAF1
Settings: immobilized DCAF1 (1058-1396), steady state affinity model, 25° C.
Protocol: Binding affinities of specific exemplary compounds to DCAF1 (1058-1396), which is a fragment of a DCAF1 protein that includes amino acid residues A1058 to E1396 were determined by a surface plasmon resonance (SPR) assay. Briefly, purified DCAF1 (1058-1396) proteins were immobilized at a density of 9,000-11,000 resonance units (RUs) on a CMS sensor chip. Sensorgrams were recorded at different concentrations of compounds in multi-cycle kinetic format. Data were analyzed using a steady state affinity model through Biacore Evaluation Software to provide equivalent dissociation constants (Kd).
Binding affinities of compounds to DCAF1 were determined by a surface plasmon resonance (SPR) assay. Purified DCAF1 (1058-1396) proteins were immobilized on a CMS sensor chip, and a dose range of compound solutions were injected in multi-cycle kinetic format. Data were analyzed using a steady state model to provide equivalent dissociation constants (Kd).
Protein Expression and Purification: Human DCAF1 (1058-1396) (UniPro: Q9Y4B6) coding sequences were cloned into pFastBacHT vector and were expressed in Sf9 cells using Bac-to-Bac baculovirus expression system (Thermo Fisher Scientific). The expression construct for DCAF1 (1058-1396) included a N-terminal His6-tag to facilitate the purification. DCAF1 (1058-1396) proteins were obtained from supernatants of cell lysates and purified through sequential application of Ni affinity chromatography (Ni-NTA column, Bio-Rad), Tag removal using TEV protease, and size-exclusion chromatography (Superdex 200 column, GE Healthcare).
Surface plasmon resonance (SPR) binding assays: SPR studies were performed on a Biacore X100 plus or T200 instrument (GE Healthcare). Immobilization of purified DCAF1 (1058-1396) was carried out at 25° C. using a CMS sensor chip. The surface was pre-equilibrated in HBS-EP running buffer (10 mM HEPES, pH 7.4, 150 mM NaCl, 3 mM EDTA, 0.05% P20), before being activated with EDC/NHS. DCAF1 (1058-1396) was immobilized through amino groups to a density of 9,000-12,000 resonance units (RUs) on flow cell channel 2 (FC2), whereas flow cell channel 1 (FC1) was used as reference. Both DCAF1 immobilized and reference surfaces were deactivated with 1 M ethanolamine.
Interaction experiments were performed at 25° C. The compounds were prepared and serially diluted in HBS-EP running buffer containing final 2% DMSO (6-point two-fold serial dilution, 100 μM -3.125 μM final concentration of compounds). Compound Solutions were injected individually in multi-cycle kinetic format without regeneration (flow rate 30 μL/min, association time 60 s, dissociation time 60 s). Sensorgrams from reference surfaces and blank injections were subtracted from the raw data (double-referenced) and the data was solvent-corrected prior to analysis. Data were analyzed using a steady state affinity model through Biacore Evaluation Software to provide equivalent dissociation constants (Kd).

T1 sequence (Q9Y4B6 1058-1396): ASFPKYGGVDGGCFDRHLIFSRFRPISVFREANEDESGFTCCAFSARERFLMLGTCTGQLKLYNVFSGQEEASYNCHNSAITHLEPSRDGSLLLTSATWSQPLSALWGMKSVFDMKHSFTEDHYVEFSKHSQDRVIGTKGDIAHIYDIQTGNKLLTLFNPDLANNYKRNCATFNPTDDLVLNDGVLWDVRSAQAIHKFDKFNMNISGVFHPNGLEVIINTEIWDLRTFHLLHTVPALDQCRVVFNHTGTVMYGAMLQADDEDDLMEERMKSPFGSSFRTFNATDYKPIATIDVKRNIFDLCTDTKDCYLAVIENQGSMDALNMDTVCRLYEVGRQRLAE

Fc1ccc2[nH]c3c(c2c1)CN(CCc1cnn[nH]1)CC3 [CPD-012, 2-(2-(1H-1,2,3-triazol-5-yl)ethyl)-8-fluoro-2,3,4,5-tetrahydro-1H-pyrido[4,3-b]indole]
Kd: ≤ 40 µM

O=c1cc(CNCc2cnc[nH]2)cc[nH]1 [CPD-026, 4-((((1H-imidazol-5-yl)methyl)amino)methyl)pyridin-2(1H)-one]
Kd: > 100 µM

OCC1(CNCc2cnc[nH]2)CC1 [CPD-105, (1-((((1H-imidazol-5-yl)methyl)amino)methyl)cyclopropyl) methanol]
Kd: ≤ 40 µM

CN1Cc2ccccc2CC1CNC(=O)Nc1ccc2c(c1)nnn2C (stereo not drawn) [CPD-096, 1-((2-methyl-1,2,3,4-tetrahydroisoquinolin-3-yl)methyl)-3-(1-methyl-1H-benzo [d][1,2,3]triazol-5-yl)urea]
Kd: > 100 µM

Cc1cc(N)n(CC(=O)N(C)CC2Cc3ccccc3CN2C)n1 (stereo not drawn) [CPD-093, 2-(5-amino-3-methyl-1H-pyrazol-1-yl)-N-methyl-N-((2-methyl-1,2,3,4-tetrahydroisoquinolin-3-yl)methyl)acetamide]
Kd: 40 to 70 µM

Cc1ccc(CCn2c3c(c4ccccc42)CN(C)CC3)cn1 [CPD-059, 2-methyl-5-(2-(6-methylpyridin-3-yl)ethyl)-2,3,4,5-tetrahydro-1H-pyrido[4,3-b]indole]
Kd: 40 to 70 µM

Cc1ccc2c(c1)C1CN(C)CCC1N2C(=O)c1ccnc(OCC(F)F)c1 (stereo not drawn) [CPD-069, (2-(2,2-difluoroethoxy)pyridin-4-yl)(2,8-dimethyl-1,2,3,4,4a,9b-hexahydro-5H-pyrido[4,3-b]indol-5-yl)methanone]
Kd: > 100 µM

COC(=O)c1scc(C)c1S(=O)(=O)N1c2ccc(C)cc2C2CN(C)CCC21 (stereo not drawn) [CPD-076, methyl 3-((2,8-dimethyl-1,2,3,4,4a,9b-hexahydro-5H-pyrido[4,3-b]indol-5-yl)sulfonyl)-4-methylthiophene-2-carboxylate]
Kd: 40 to 70 µM

Cc1ccc2c(c1)C1CN(C)CCC1N2S(=O)(=O)c1c([N+](=O)[O-])ccc(C)c1C (stereo not drawn) [CPD-078, 5-((2,3-dimethyl-6-nitrophenyl)sulfonyl)-2,8-dimethyl-2,3,4,4a,5,9b-hexahydro-1H-pyrido[4,3-b]indole]
Kd: > 100 µM

COc1cc(C)cc(CNCc2cnc[nH]2)c1 [CPD-028, N-((1H-imidazol-5-yl)methyl)-1-(3-methoxy-5-methylphenyl) methanamine]
Kd: > 100 µM

COc1ccc2cc(CNCc3cncn3CC(C)C)c(=O)[nH]c2c1 [CPD-104, 3-((((1-isobutyl-1H-imidazol-5-yl)methyl)amino)methyl)-7-methoxyquinolin-2(1H)-one]
Kd: 70 to 100 µM

NCCOCCOCCOCCn1cccc1CNCc1ccncc1 [CPD-006, 2-(2-(2-(2-(2-(((pyridin-4-ylmethyl)amino)methyl)-1H-pyrrol-1-yl)ethoxy)ethoxy)ethoxy)ethan-1-amine]
Kd: 40 to 70 µM

NCCCCCCn1cccc1C(=O)NCc1ccncc1 [CPD-004, 1-(6-aminohexyl)-N-(pyridin-4-ylmethyl)-1H-pyrrole-2-carboxamide]
Kd: 40 to 70 µM

COC(=O)NCCN1CCc2ccccc2C1 [CPD-023, methyl (2-(3,4-dihydroisoquinolin-2(1H)-yl)ethyl)carbamate]
Kd: 70 to 100 µM

Cc1ccc2c(c1)[C@@H]1CN(C)CC[C@H]1N2C (racemic) [CPD-034, trans-2,5,8-trimethyl-2,3,4,4a,5,9b-hexahydro-1H-pyrido[4,3-b]indole]
Kd: > 100 µM

Cc1ccc2c(c1)C1CN(C)CCC1N2c1nc(S(=O)(=O)c2ccccc2)c(Cl)s1 (stereo not drawn) [CPD-061, 5-chloro-2-(2,8-dimethyl-1,2,3,4,4a,9b-hexahydro-5H-pyrido [4,3-b]indol-5-yl)-4-(phenylsulfonyl)thiazole]
Kd: > 100 µM

Cc1ccc(S(=O)(=O)c2nc(N3c4ccc(C)cc4C4CN(C)CCC43)sc2Cl)cc1 (stereo not drawn) [CPD-062, 5-chloro-2-(2,8-dimethyl-1,2,3,4,4a,9b-hexahydro-5H-pyrido [4,3-b]indol-5-yl)-4-tosylthiazole]
Kd: > 100 µM

CC(C)(C)c1ccc2[nH]c3c(c2c1)CN(CCc1cnn[nH]1)CC3 [CPD-011, 2-(2-(1H-1,2,3-triazol-5-yl)ethyl)-8-(tert-butyl)-2,3,4,5-tetrahydro-1H-pyrido[4,3-b]indole]
Kd: 40 to 70 µM

O=C(NCCn1ncc2ccccc2c1=O)C1Cc2ccccc2CN1 (stereo not drawn) [CPD-098, N-(2-(1-oxophthalazin-2(1H)-yl)ethyl)-1,2,3,4-tetrahydroisoquinoline-3-carboxamide]
Kd: 40 to 70 µM

OCCOc1ccc(CNCc2cnc[nH]2)cc1 [CPD-031, 2-(4-((((1H-imidazol-5-yl)methyl)amino)methyl)phenoxy)ethan-1-ol]
Kd: > 100 µM

Cc1ccc2c(c1)C1CN(C)CCC1N2C(=O)/C=C/c1nccs1 (stereo not drawn) [CPD-081, (E)-1-(2,8-dimethyl-1,2,3,4,4a,9b-hexahydro-5H-pyrido [4,3-b]indol-5-yl)-3-(thiazol-2-yl)prop-2-en-1-one]
Kd: > 100 µM

Cc1ccc2c(c1)C1CN(C)CCC1N2C(=O)CCc1cccs1 (stereo not drawn) [CPD-082, 1-(2,8-dimethyl-1,2,3,4,4a,9b-hexahydro-5H-pyrido[4,3-b]indol-5-yl)-3-(thiophen-2-yl)propan-1-one]
Kd: > 100 µM

COc1nn(C)cc1C(=O)N1c2ccc(C)cc2C2CN(C)CCC21 (stereo not drawn) [CPD-070, (2,8-dimethyl-1,2,3,4,4a,9b-hexahydro-5H-pyrido[4,3-b]indol-5-yl)(3-methoxy-1-methyl-1H-pyrazol-4-yl)methanone]
Kd: > 100 µM

Cn1cccc1CNCc1ccccn1 [CPD-003, 1-(1-methyl-1H-pyrrol-2-yl)-N-(pyridin-2-ylmethyl)methanamine]
Kd: > 100 µM

COc1cc(CNCc2cnc[nH]2)ccn1 [CPD-025, N-((1H-imidazol-5-yl)methyl)-1-(2-methoxypyridin-4-yl) methanamine]
Kd: > 100 µM

Clc1cc(CNCc2cnc[nH]2)cc2c1OCO2 [CPD-030, N-((1H-imidazol-5-yl)methyl)-1-(7-chlorobenzo[d][1,3]dioxol-5-yl)methanamine]
Kd: > 100 µM

c1ncc(CNCc2ccc3cc[nH]c3c2)[nH]1 [CPD-029, N-((1H-imidazol-5-yl)methyl)-1-(1H-indol-6-yl)methanamine]
Kd: > 100 µM

CN1CCc2[nH]c3ccc(Cl)cc3c2C1 [CPD-046, 8-chloro-2-methyl-2,3,4,5-tetrahydro-1H-pyrido[4,3-b]indole]
Kd: > 100 µM

CC(C)c1ccc2[nH]c3c(c2c1)CN(CCc1cnn[nH]1)CC3 [CPD-009, 2-(2-(1H-1,2,3-triazol-5-yl)ethyl)-8-isopropyl-2,3,4,5-tetrahydro-1H-pyrido[4,3-b]indole]
Kd: 40 to 70 µM

Oc1ccc(F)c(CNCc2cnc[nH]2)c1 [CPD-102, 3-((((1H-imidazol-5-yl)methyl)amino)methyl)-4-fluorophenol]
Kd: > 100 µM

Nc1nc(CCN2CCc3[nH]c4ccc(F)cc4c3C2)cs1 [CPD-053, 4-(2-(8-fluoro-1,3,4,5-tetrahydro-2H-pyrido[4,3-b]indol-2-yl)ethyl)thiazol-2-amine]
Kd: 40 to 70 µM

Cc1ccc2c(c1)C1CN(C)CCC1N2C(=O)/C=C/c1cccc(C(F)(F)F)c1 (stereo not drawn) [CPD-075, (E)-1-(2,8-dimethyl-1,2,3,4,4a,9b-hexahydro-5H-pyrido [4,3-b]indol-5-yl)-3-(3-(trifluoromethyl)phenyl)prop-2-en-1-one]
Kd: > 100 µM

Cc1cccc2c1[C@H]1CN(C)CC[C@H]1N2 (racemic) [CPD-041, cis-2,9-dimethyl-2,3,4,4a,5,9b-hexahydro-1H-pyrido[4,3-b]indole]
Kd: > 100 µM

Cc1cccc2c1[C@@H]1CN(C)CC[C@H]1N2C (racemic) [CPD-040, trans-2,5,9-trimethyl-2,3,4,4a,5,9b-hexahydro-1H-pyrido[4,3-b]indole]
Kd: > 100 µM

CCn1ccnc1CN(C)CC1Cc2ccccc2CN1C (stereo not drawn) [CPD-091, 1-(1-ethyl-1H-imidazol-2-yl)-N-methyl-N-((2-methyl-1,2,3,4-tetrahydroisoquinolin-3-yl)methyl)methanamine]
Kd: 70 to 100 µM

COc1cncc(CNCc2cnc[nH]2)c1 [CPD-027, N-((1H-imidazol-5-yl)methyl)-1-(5-methoxypyridin-3-yl) methanamine]
Kd: > 100 µM

From patent US20240197694A1, “MODIFIED PROTEINS AND PROTEIN BINDERS” (Cullgen (Shanghai), Inc., priority 2021, published 2024)
